In ChEMBL document CHEMBL5678816, “A Next-Generation TRK Kinase Inhibitor Overcomes Acquired Resistance to Prior TRK Kinase Inhibition in Patients with TRK Fusion-Positive Solid Tumors” (Cancer Discov, 2017):
Calls of active or inactive are those of the source. The calls are words filed in the database; no cut-off is given here.

Columns and labels:
SHP77 = experiment: Inhibition of cell proliferation in human SHP77 cells upto 10 umol/L incubated for 72 hrs by DAPI staining based analysis; assay type: functional; conditions: dose <= 10.0 µmol/L
5637 = experiment: Inhibition of cell proliferation in human 5637 cells upto 10 umol/L incubated for 72 hrs by DAPI staining based analysis; assay type: functional; conditions: dose <= 10.0 µmol/L
Detroit 562 = experiment: Inhibition of cell proliferation in human Detroit 562 cells upto 10 umol/L incubated for 72 hrs by DAPI staining based analysis; assay type: functional; conditions: dose <= 10.0 µmol/L
J82 = experiment: Inhibition of cell proliferation in human J82 cells upto 10 umol/L incubated for 72 hrs by DAPI staining based analysis; assay type: functional; conditions: dose <= 10.0 µmol/L
RT112/84 = experiment: Inhibition of cell proliferation in human RT112/84 cells upto 10 umol/L incubated for 72 hrs by DAPI staining based analysis; assay type: functional; conditions: dose <= 10.0 µmol/L
Caov-3 cell line = experiment: Inhibition of cell proliferation in human Caov-3 cells upto 10 umol/L incubated for 72 hrs by DAPI staining based analysis; assay type: functional; conditions: dose <= 10.0 µmol/L
U138-MG = experiment: Inhibition of cell proliferation in human U138-MG cells upto 10 umol/L incubated for 72 hrs by DAPI staining based analysis; assay type: functional; conditions: dose <= 10.0 µmol/L
[1] = target: ALK tyrosine kinase receptor (Homo sapiens) (UniProt Q9UM73); experiment: Inhibition of ALK (unknown origin) at 1 uM in presence of ATP relative to control; values are per cent of control
[2] = target: Tyrosine-protein kinase receptor UFO (Homo sapiens) (UniProt P30530); experiment: Inhibition of Axl (unknown origin) at 1 uM in presence of ATP relative to control; values are per cent of control
[3] = target: Tyrosine-protein kinase BTK (Homo sapiens) (UniProt Q06187); experiment: Inhibition of BTK (unknown origin) at 1 uM in presence of ATP relative to control; values are per cent of control
[4] = target: Tyrosine-protein kinase ITK/TSK (Homo sapiens) (UniProt Q08881); experiment: Inhibition of ITK (unknown origin) at 1 uM in presence of ATP relative to control; values are per cent of control
[5] = target: Hepatocyte growth factor receptor (Homo sapiens) (UniProt P08581); experiment: Inhibition of Met (unknown origin) at 1 uM in presence of ATP relative to control; values are per cent of control
[6] = target: Tyrosine-protein kinase Yes (Homo sapiens) (UniProt P07947); experiment: Inhibition of Yes (unknown origin) at 1 uM in presence of ATP relative to control; values are per cent of control
[7] = target: Serine/threonine-protein kinase Chk1 (Homo sapiens) (UniProt O14757); experiment: Inhibition of CHK1 (unknown origin) at 1 uM in presence of ATP relative to control; values are per cent of control
[8] = target: Serine/threonine-protein kinase Nek3 (Homo sapiens) (UniProt P51956); experiment: Inhibition of NEK3 (unknown origin) at 1 uM in presence of ATP relative to control; values are per cent of control
[9] = target: Serine/threonine-protein kinase PLK3 (Homo sapiens) (UniProt Q9H4B4); experiment: Inhibition of Plk3 (unknown origin) at 1 uM in presence of ATP relative to control; values are per cent of control
[10] = target: Serine/threonine-protein kinase PAK 2 (Homo sapiens) (UniProt Q13177); experiment: Inhibition of PAK2 (unknown origin) at 1 uM in presence of ATP relative to control; values are per cent of control
[11] = target: Protein-tyrosine kinase 2-beta (Homo sapiens) (UniProt Q14289); experiment: Inhibition of FAK2 (unknown origin) at 1 uM in presence of ATP relative to control; values are per cent of control
[12] = target: Activin receptor type-1B (Homo sapiens) (UniProt P36896); experiment: Inhibition of ALK4 (unknown origin) at 1 uM in presence of ATP relative to control; values are per cent of control
[13] = target: Serine/threonine-protein kinase BRSK2 (Homo sapiens) (UniProt Q8IWQ3); experiment: Inhibition of BrSK2 (unknown origin) at 1 uM in presence of ATP relative to control; values are per cent of control
[14] = target: Ephrin type-A receptor 1 (Homo sapiens) (UniProt P21709); experiment: Inhibition of EphA1 (unknown origin) at 1 uM in presence of ATP relative to control; values are per cent of control
[15] = target: Ephrin type-B receptor 3 (Homo sapiens) (UniProt P54753); experiment: Inhibition of EphB3 (unknown origin) at 1 uM in presence of ATP relative to control; values are per cent of control
[16] = target: Fibroblast growth factor receptor 4 (Homo sapiens) (UniProt P22455); experiment: Inhibition of FGFR4 (unknown origin) at 1 uM in presence of ATP relative to control; values are per cent of control
[17] = target: Insulin-like growth factor 1 receptor (Homo sapiens) (UniProt P08069); experiment: Inhibition of IGF-1R (unknown origin) at 1 uM in presence of ATP relative to control; values are per cent of control
[18] = target: Mitogen-activated protein kinase 11 (Homo sapiens) (UniProt Q15759); experiment: Inhibition of p38beta (unknown origin) at 1 uM in presence of ATP relative to control; values are per cent of control
[19] = target: MAP kinase-activated protein kinase 2 (Homo sapiens) (UniProt P49137); experiment: Inhibition of MAPKAP-K2 (unknown origin) at 1 uM in presence of ATP relative to control; values are per cent of control
[20] = target: Phosphorylase b kinase gamma catalytic chain, liver/testis isoform (Homo sapiens) (UniProt P15735); experiment: Inhibition of PhKgamma2 (unknown origin) at 1 uM in presence of ATP relative to control; values are per cent of control
[21] = target: Casein kinase I isoform gamma-1 (Homo sapiens) (UniProt Q9HCP0); experiment: Inhibition of CK1gamma1 (unknown origin) at 1 uM in presence of ATP relative to control; values are per cent of control
[22] = target: CDK3/Cyclin E (Homo sapiens) (UniProt P24864+Q00526); experiment: Inhibition of CDK3/cyclinE (unknown origin) at 1 uM in presence of ATP relative to control; values are per cent of control

Sequence of Tyrosine-protein kinase BTK (Homo sapiens) (Q06187 whole entry): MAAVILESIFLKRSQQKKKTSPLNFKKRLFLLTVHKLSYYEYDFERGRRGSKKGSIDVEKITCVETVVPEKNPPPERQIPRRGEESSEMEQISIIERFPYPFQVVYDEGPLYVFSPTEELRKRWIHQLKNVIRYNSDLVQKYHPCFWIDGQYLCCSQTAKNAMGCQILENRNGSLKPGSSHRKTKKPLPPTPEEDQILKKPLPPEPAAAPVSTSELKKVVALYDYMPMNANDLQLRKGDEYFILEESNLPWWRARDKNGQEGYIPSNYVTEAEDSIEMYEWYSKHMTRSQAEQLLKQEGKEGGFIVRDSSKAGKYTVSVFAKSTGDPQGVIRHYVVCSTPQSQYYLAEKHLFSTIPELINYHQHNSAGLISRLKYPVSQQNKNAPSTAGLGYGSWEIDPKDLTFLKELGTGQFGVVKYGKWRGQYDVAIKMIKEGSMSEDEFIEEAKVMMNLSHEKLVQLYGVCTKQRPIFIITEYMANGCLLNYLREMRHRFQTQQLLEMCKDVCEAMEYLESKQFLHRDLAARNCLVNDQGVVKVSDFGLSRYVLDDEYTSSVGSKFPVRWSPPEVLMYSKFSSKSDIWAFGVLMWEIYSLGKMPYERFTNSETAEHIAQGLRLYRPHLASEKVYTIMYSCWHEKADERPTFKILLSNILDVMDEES
Sequence of Phosphorylase b kinase gamma catalytic chain, liver/testis isoform (Homo sapiens) (P15735 whole entry, canonical isoform): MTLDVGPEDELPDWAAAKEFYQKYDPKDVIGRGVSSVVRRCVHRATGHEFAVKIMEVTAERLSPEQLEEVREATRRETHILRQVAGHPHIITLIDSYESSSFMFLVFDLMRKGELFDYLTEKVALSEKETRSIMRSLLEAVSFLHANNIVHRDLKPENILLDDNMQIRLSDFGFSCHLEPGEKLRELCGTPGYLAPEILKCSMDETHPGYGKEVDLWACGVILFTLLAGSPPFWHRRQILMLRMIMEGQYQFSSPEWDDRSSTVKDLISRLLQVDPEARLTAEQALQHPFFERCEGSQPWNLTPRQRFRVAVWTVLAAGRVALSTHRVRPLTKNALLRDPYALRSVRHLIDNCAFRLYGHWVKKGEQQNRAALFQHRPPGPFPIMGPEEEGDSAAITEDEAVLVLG
Sequence of Ephrin type-B receptor 3 (Homo sapiens) (P54753 whole entry): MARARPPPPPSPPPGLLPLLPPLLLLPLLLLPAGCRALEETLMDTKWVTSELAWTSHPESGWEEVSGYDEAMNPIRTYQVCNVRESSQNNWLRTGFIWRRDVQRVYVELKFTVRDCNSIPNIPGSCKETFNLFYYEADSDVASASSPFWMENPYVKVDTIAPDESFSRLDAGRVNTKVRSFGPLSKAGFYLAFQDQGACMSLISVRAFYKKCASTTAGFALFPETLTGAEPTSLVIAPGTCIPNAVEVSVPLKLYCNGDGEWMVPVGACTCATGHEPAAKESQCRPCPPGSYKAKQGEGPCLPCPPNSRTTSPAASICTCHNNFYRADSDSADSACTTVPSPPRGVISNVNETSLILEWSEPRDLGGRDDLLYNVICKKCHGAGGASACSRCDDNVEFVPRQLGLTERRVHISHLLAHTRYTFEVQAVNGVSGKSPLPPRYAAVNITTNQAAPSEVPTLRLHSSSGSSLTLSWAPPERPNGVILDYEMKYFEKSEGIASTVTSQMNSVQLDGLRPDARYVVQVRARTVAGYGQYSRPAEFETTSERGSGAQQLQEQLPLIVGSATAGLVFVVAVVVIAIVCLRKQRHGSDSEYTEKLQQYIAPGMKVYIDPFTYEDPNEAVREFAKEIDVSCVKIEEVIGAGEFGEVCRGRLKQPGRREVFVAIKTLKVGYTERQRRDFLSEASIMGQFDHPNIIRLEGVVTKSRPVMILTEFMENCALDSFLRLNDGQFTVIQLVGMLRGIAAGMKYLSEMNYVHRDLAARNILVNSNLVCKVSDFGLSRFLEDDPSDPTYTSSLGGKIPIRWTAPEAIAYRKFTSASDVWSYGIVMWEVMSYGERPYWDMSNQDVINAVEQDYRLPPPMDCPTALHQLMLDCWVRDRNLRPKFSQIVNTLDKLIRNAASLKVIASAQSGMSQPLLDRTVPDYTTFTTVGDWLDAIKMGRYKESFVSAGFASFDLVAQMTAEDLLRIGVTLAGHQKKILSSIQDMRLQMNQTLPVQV
Sequence of Serine/threonine-protein kinase Chk1 (Homo sapiens) (O14757 whole entry): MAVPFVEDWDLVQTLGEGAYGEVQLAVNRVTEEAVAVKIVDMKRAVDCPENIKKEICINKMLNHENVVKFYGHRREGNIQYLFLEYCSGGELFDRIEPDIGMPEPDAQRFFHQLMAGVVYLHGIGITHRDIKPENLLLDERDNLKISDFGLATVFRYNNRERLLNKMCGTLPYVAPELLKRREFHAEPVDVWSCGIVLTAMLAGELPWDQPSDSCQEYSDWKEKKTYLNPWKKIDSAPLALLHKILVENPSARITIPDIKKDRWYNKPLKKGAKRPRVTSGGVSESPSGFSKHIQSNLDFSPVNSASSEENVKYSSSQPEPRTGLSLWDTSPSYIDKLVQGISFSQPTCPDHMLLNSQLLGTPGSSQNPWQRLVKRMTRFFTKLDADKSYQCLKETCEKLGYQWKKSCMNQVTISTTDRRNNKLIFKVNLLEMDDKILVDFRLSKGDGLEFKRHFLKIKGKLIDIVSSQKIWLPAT
Sequence of Fibroblast growth factor receptor 4 (Homo sapiens) (P22455 22-802 limits assumed): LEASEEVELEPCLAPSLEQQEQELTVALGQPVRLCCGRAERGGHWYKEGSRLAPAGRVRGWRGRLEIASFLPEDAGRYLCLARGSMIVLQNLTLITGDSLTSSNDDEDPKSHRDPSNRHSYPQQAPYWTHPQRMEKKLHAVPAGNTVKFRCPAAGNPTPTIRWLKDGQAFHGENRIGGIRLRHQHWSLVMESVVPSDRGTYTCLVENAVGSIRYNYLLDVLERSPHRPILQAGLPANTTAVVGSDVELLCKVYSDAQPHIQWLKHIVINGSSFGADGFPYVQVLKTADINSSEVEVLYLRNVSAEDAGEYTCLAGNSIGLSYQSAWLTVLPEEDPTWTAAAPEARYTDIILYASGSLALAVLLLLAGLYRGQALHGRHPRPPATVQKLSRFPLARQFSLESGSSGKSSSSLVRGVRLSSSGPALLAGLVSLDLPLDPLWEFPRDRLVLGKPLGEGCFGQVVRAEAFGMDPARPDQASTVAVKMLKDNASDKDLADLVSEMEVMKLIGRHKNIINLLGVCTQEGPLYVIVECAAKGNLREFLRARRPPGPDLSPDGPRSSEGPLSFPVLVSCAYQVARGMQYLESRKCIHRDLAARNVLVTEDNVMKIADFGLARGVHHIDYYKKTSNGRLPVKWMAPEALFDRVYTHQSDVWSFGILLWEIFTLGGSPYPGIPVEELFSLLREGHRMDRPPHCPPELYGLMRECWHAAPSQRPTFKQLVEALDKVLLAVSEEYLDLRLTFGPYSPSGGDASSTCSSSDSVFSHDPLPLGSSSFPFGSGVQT
Sequence of Tyrosine-protein kinase receptor UFO (Homo sapiens) (P30530 whole entry): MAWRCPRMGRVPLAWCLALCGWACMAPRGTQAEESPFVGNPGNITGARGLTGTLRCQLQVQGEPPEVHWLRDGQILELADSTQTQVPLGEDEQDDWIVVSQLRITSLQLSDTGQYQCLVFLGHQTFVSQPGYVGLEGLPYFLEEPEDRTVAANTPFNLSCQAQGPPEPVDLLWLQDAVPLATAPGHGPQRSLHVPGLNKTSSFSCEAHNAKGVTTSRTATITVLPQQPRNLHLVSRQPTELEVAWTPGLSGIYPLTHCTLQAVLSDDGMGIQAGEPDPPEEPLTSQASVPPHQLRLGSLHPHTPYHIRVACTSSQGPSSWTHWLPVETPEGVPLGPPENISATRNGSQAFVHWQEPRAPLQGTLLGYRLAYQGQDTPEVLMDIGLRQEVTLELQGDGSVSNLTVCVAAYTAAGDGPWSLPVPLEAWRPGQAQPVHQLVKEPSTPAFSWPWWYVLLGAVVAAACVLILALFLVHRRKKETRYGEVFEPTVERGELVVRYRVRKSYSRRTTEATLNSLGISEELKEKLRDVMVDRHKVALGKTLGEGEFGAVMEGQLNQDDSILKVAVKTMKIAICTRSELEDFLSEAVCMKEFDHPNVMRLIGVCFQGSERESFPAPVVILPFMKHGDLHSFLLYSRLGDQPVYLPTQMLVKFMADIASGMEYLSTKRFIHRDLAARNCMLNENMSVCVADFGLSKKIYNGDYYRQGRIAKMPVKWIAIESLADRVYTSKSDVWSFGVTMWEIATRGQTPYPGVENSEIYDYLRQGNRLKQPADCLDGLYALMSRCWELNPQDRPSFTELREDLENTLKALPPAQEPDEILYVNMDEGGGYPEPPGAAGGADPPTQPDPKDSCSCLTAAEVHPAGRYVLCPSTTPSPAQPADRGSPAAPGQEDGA
Sequence of Serine/threonine-protein kinase PAK 2 (Homo sapiens) (Q13177 whole entry): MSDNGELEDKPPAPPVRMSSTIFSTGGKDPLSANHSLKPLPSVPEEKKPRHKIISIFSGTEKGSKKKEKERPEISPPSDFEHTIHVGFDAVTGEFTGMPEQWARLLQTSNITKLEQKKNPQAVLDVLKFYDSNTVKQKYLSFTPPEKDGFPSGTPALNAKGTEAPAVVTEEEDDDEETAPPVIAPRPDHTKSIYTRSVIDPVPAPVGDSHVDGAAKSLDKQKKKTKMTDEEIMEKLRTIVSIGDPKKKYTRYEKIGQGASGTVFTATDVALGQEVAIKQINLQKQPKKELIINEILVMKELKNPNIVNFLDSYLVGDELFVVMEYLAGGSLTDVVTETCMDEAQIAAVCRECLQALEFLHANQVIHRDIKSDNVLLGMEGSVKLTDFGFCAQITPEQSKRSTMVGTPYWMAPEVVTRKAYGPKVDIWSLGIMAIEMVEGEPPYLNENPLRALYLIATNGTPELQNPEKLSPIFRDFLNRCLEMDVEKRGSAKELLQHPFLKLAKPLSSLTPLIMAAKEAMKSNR

## C[C@@H]1CCc2ncc(F)cc2[C@H]2CCCN2c2ccn3ncc(c3n2)C(=O)N1 [SELITRECTINIB]
SHP77
  inhibition: inactive
5637
  inhibition: inactive
Detroit 562
  inhibition: inactive
J82
  inhibition: inactive
RT112/84
  inhibition: inactive
Caov-3 cell line
  inhibition: inactive
U138-MG
  inhibition: inactive
[1]
  residual activity: 50%
[2]
  residual activity: 90%
[3]
  residual activity: 87%
[4]
  residual activity: 90.5%
[5]
  residual activity: 109%
[6]
  residual activity: 82%
[7]
  residual activity: 109%
[8]
  residual activity: 110%
[9]
  residual activity: 93.5%
[10]
  residual activity: 108%
[11]
  residual activity: 89%
[12]
  residual activity: 96%
[13]
  residual activity: 124%
[14]
  residual activity: 74%
[15]
  residual activity: 101%
[16]
  residual activity: 128%
[17]
  residual activity: 96%
[18]
  residual activity: 123%
[19]
  residual activity: 102%
[20]
  residual activity: 104%
[21]
  residual activity: 112%
[22]
  residual activity: 104%
